As usually defined, the Kd is the equilibrium constant for the complex coming apart. Broadly, the Ki is a dissociation constant, usually derived from enzyme kinetics or from competition with a known ligand. Low values mean a stronger hold on the target, high ones a looser hold on the target.

The target of the first experiment is T1, TAAR1 (Mus musculus (Mouse), UniProt Q923Y8). Nature of the experiment: Radioligand binding assay on TAAR1: Kd of the radioligand. The conditions noted are these: binding assay at 4° C.; species of TAAR1 not stated; read-out: calculated Kd value of the radioligand. As to the method: Cells at confluence were rinsed with ice-cold phosphate buffered saline without Ca^2+ and Mg^2+ containing 10 mM EDTA and pelleted by centrifugation at 1000 rpm for 5 min at 4° C. The pellet was then washed twice with ice-cold phosphate buffered saline and cell pellet was frozen immediately by immersion in liquid nitrogen and stored until use at −80° C. Cell pellet was then suspended in 20 ml HEPES-NaOH (20 mM), pH 7.4 containing 10 mM EDTA, and homogenized with a Polytron (PT 3000, Kinematica) at 10,000 rpm for 10 s. The homogenate was centrifuged at 48,000×g for 30 min at 4° C. and the pellet resuspended in 20 ml HEPES-NaOH (20 mM), pH 7.4 containing 0.1 mM EDTA (buffer A), and homogenized with a Polytron at 10,000 rpm for 10 s. The homogenate was then centrifuged at 48,000×g for 30 min at 4° C. and the pellet resuspended in 20 ml buffer A, and homogenized with a Polytron at 10,000 rpm for 10 s. Protein concentration was determined by the method of Pierce (Rockford, Ill.). […]
T1 sequence (Q923Y8 whole entry): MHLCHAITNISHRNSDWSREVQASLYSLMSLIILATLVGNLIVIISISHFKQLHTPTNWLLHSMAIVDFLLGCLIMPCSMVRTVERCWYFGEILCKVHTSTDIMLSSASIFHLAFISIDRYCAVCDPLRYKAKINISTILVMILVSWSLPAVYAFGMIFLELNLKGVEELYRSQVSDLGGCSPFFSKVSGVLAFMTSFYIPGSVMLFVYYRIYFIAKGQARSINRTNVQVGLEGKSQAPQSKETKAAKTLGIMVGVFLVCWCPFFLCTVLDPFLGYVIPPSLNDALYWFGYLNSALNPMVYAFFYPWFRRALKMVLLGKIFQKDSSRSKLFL
Binding assay was performed at 4° C. in a final volume of 1 ml, and with an incubation time of 30 min. […] The tubes and filters were then washed 3 times with 1 ml aliquots of cold buffer B. Filters were not dried and soaked in Ultima gold (45 μl/well, Packard Instrument Company) and bound radioactivity was counted by a TopCount Microplate Scintillation Counter (Packard Instrument Company).
For the compound `c1ccc2c(c1)CCCC2C1=NCCN1` (racemic) [[^3H]-rac-2-(1,2,3,4-tetrahydro-1-naphthyl)-2-imidazoline], the Kd is 60 nM.

Another experiment has as its target T1, TAAR1. The experiment in a line: Radioligand binding assay on TAAR1 (membranes of stably transfected HEK293 cells). The conditions noted are these: competition with [3H]-rac-2-(1,2,3,4-tetrahydro-1-naphthyl)-2-imidazoline, 4° C., 30 min. On the procedure: For the construction of expression plasmids the coding sequences of human, rat and mouse TAAR 1 were amplified from genomic DNA essentially as described by Lindemann et al.. The Expand High Fidelity PCR System (Roche Diagnostics) was used with 1.5 mM Mg^2+ and purified PCR products were cloned into pCR2.1—TOPO cloning vector (Invitrogen) following the instructions of the manufacturer. PCR products were subcloned into the pIRESneo2 vector (BD Clontech, Palo Alto, Calif.), and expression vectors were sequence verified before introduction in cell lines.
HEK293 cells (ATCC # CRL-1573) were cultured essentially as described Lindemann et al. (2005). For the generation of stably transfected cell lines HEK293 cells were transfected with the pIRESneo2 expression plasmids containing the TAAR coding sequences (described above) with Lipofectamine 2000 (Invitrogen) according to the instructions of the manufacturer, and 24 hrs post transfection the culture medium was supplemented with 1 mg/ml G418 (Sigma, Buchs, Switzerland). After a culture period of about 10 d clones were isolated, expanded and tested for responsiveness to trace amines (all compounds purchased from Sigma) with the cAMP Biotrak Enzyme immunoassay (EIA) System (Amersham) following the non-acetylation EIA procedure provided by the manufacturer. […] Membrane Preparation and Radioligand Binding
Cells at confluence were rinsed with ice-cold phosphate buffered saline without Ca^2+ and Mg^2+ containing 10 mM EDTA and pelleted by centrifugation at 1000 rpm for 5 min at 4° C. The pellet was then washed twice with ice-cold phosphate buffered saline and cell pellet was frozen immediately by immersion in liquid nitrogen and stored until use at −80° C. Cell pellet was then suspended in 20 ml HEPES-NaOH (20 mM), pH 7.4 containing 10 mM EDTA, and homogenized with a Polytron (PT 3000, Kinematica) at 10,000 rpm for 10 s. The homogenate was centrifuged at 48,000×g for 30 min at 4° C. and the pellet resuspended in 20 ml HEPES-NaOH (20 mM), pH 7.4 containing 0.1 mM EDTA (buffer A), and homogenized with a Polytron at 10,000 rpm for 10 s. The homogenate was then centrifuged at 48,000×g for 30 min at 4° C. and the pellet resuspended in 20 ml buffer A, and homogenized with a Polytron at 10,000 rpm for 10 s. Protein concentration was determined by the method of Pierce (Rockford, Ill.). The homogenate was then centrifuged at 48,000×g for 10 min at 4° C., resuspended in HEPES-NaOH (20 mM), pH 7.0 including MgCl2 (10 mM) and […] homogenized with a Polytron at 10,000 rpm for 10 s.
Binding assay was performed at 4° C. in a final volume of 1 ml, and with an incubation time of 30 min. The radioligand [^3H]-rac-2-(1,2,3,4-tetrahydro-1-naphthyl)-2-imidazoline was used at a concentration equal to the calculated Kd value of 60 nM to give a bound at around 0.1% of the total added radioligand concentration, and a specific binding which represented approximately 70-80% of the total binding. Non-specific binding was defined as the amount of [^3H]-rac-2-(1,2,3,4-tetrahydro-1-naphthyl)-2-imidazoline bound in the presence of the appropriate unlabelled ligand (10 μM). Competing ligands were tested in a wide range of concentrations […]. […] Each experiment was performed in duplicate. All incubations were terminated by rapid filtration through UniFilter-96 plates (Packard Instrument Company) and glass filter GF/C, pre-soaked for at least 2 h in polyethylenimine 0.3%, and using a Filtermate 96 Cell Harvester (Packard Instrument Company). The tubes and filters were then washed 3 times with 1 ml aliquots of cold buffer B. Filters were not dried and soaked in Ultima gold (45 μl/well, Packard Instrument Company) and bound radioactivity was counted by a TopCount Microplate Scintillation Counter (Packard Instrument Company).
Turning to `CC[C@@H](C[C@H]1COC(N)=N1)Oc1ccc(F)c(F)c1` [Example 119, (S)-4-[(S)-2-(3,4-Difluoro-phenoxy)-butyl]-4,5-dihydro-oxazol-2-ylamine], the Ki amounted to 0.0017 µM.

`CC[C@@H](C[C@H]1COC(N)=N1)Oc1ccc(F)c(Cl)c1` [Example 120, (S)-4-[(S)-2-(3-Chloro-4-fluoro-phenoxy)-butyl]-4,5-dihydro-oxazol-2-ylamine] returned a Ki of 0.0014 µM.

Compound `CC[C@@H](C[C@H]1COC(N)=N1)Oc1ccc(C(F)(F)F)cc1` [Example 121, (S)-4-[(S)-2-(4-Trifluoromethyl-phenoxy)-butyl]-4,5-dihydro-oxazol-2-ylamine] displayed a Ki of 0.0038 µM.

`CC[C@@H](C[C@H]1COC(N)=N1)Oc1ccc(Cl)c(Cl)c1` [Example 122, (S)-4-[(S)-2-(3,4-Dichloro-phenoxy)-butyl]-4,5-dihydro-oxazol-2-ylamine]: the affinity, expressed as Ki, was 0.0007 µM. This Ki lies about 5.4-fold lower than the previous one.

`CC[C@@H](C[C@H]1COC(N)=N1)Oc1ccc(Cl)cc1F` [Example 123, (S)-4-[(S)-2-(4-Chloro-2-fluoro-phenoxy)-butyl]-4,5-dihydro-oxazol-2-ylamine]: the affinity, expressed as Ki, was 0.0065 µM.

In turn, `CCC(CC[C@H]1COC(N)=N1)c1cc(F)cc(F)c1` (stereo partly drawn) [Example 124, (4S)-4-[3-(3,5-Difluoro-phenyl)-pentyl]-4,5-dihydro-oxazol-2-ylamine] gave a Ki of 0.001 µM.

Turning to `COC(=O)c1cccc(OCC[C@H]2COC(N)=N2)c1` [Example 127, 3-[2-((S)-2-Amino-4,5-dihydro-oxazol-4-yl)-ethoxy]-benzoic acid methyl ester], the affinity corresponds to a Ki of 0.008 µM.

Consider `NC1=N[C@@H](CCOc2cc(F)cc(F)c2)CO1` [Example 130, (S)-4-[2-(3,5-Difluoro-phenoxy)-ethyl]-4,5-dihydro-oxazol-2-ylamine], for which affinity was put at a Ki of 0.0007 µM.

`NC1=N[C@@H](CCOc2cccc(C(=O)OCc3ccccc3)c2)CO1` [Example 136, 3-[2-((S)-2-Amino-4,5-dihydro-oxazol-4-yl)-ethoxy]-benzoic acid benzyl ester] registered a Ki of 0.0004 µM.

The compound `CC[C@@H](C[C@H]1COC(N)=N1)Oc1cccc(OCc2ccccc2)c1` [Example 140, (S)-4-[(S)-2-(3-Benzyloxy-phenoxy)-butyl]-4,5-dihydro-oxazol-2-ylamine] came in with a Ki of 0.0009 µM.

`CC[C@@H](C[C@H]1COC(N)=N1)Oc1cccc(O)c1` [Example 141, 3-[(S)-1-((8)-2-Amino-4,5-dihydro-oxazol-4-ylmethyl)-propoxy]-phenol] showed a Ki of 0.0037 µM.

The compound `NC1=N[C@@H](CCC2(c3cc(F)cc(F)c3)CC2)CO1` [Example 142, (S)-4-{2-[1-(3,5-Difluoro-phenyl)-cyclopropyl]-ethyl}-4,5-dihydro-oxazol-2-ylamine] registered a Ki of 0.0013 µM.

`NC1=N[C@@H](CCC2(c3cc(F)cc(Cl)c3)CC2)CO1` [Example 143, (S)-4-{2-[1-(3-Chloro-5-fluoro-phenyl)-cyclopropyl]-ethyl}-4,5-dihydro-oxazol-2-ylamine] registered a Ki of 0.0009 µM. This Ki and that of the compound before are within 1.5-fold of each other.

Compound `NC1=N[C@@H](CCC2(c3ccc(Br)cc3)CC2)CO1` [Example 144, (S)-4-{2-[1-(4-Bromo-phenyl)-cyclopropyl]-ethyl}-4,5-dihydro-oxazol-2-ylamine] registered a Ki of 0.0005 µM.

`NC1=N[C@@H](CCSc2ccc(F)cc2)CO1` [Example 150, (S)-4-[2-(4-Fluoro-phenylsulfanyl)-ethyl]-4,5-dihydro-oxazol-2-ylamine] showed a Ki of 0.0007 µM.

`CC[C@@H](C[C@H]1COC(N)=N1)Oc1cc(F)c(F)cc1F` [Example 152, (S)-4-[(S)-2-(2,4,5-Trifluoro-phenoxy)-butyl]-4,5-dihydro-oxazol-2-ylamine] came in with a Ki of 0.0029 µM.

`CC[C@@H](C[C@H]1COC(N)=N1)Oc1ccc2ccccc2c1` [Example 153, (S)-4-[(S)-2-(Naphthalen-2-yloxy)-butyl]-4,5-dihydro-oxazol-2-ylamine] showed a Ki of 0.0011 µM.

With `C[C@H](OC[C@H]1COC(N)=N1)c1ccc(F)cc1` [Example 155, (S)-4-[(S)-1-(4-Fluoro-phenyl)-ethoxymethyl]-4,5-dihydro-oxazol-2-ylamine], the Ki is 0.0032 µM.

`CC[C@H](OC[C@H]1COC(N)=N1)c1ccccc1` [Example 156, (S)-4-((S)-1-Phenyl-propoxymethyl)-4,5-dihydro-oxazol-2-ylamine] came in with a Ki of 0.0073 µM.

For the compound `CC[C@@H](C[C@H]1COC(N)=N1)Oc1ccc(Cl)cc1Cl` [Example 158, (S)-4-[(S)-2-(2,4-Dichloro-phenoxy)-butyl]-4,5-dihydro-oxazol-2-ylamine], the Ki was 0.0011 µM.

The compound `CC[C@@H](C[C@H]1COC(N)=N1)Oc1ccc2ncccc2c1` [Example 159, (S)-4-[(S)-2-(Quinolin-6-yloxy)-butyl]-4,5-dihydro-oxazol-2-ylamine] registered an inhibition constant Ki of 0.0063 µM.

Consider `NC1=N[C@@H](CCC(F)(F)c2ccc(F)cc2)CO1` [Example 162, (S)-4-[3,3-Difluoro-3-(4-fluoro-phenyl)-propyl]-4,5-dihydro-oxazol-2-ylamine], for which the affinity, expressed as Ki, was 0.0022 µM.

`NC1=N[C@@H](CCCCc2ccccc2)CO1` [Example 172, (S)-4-(4-Phenyl-butyl)-4,5-dihydro-oxazol-2-ylamine] displayed a Ki of 0.0015 µM.

(Values after patent US8729113B2 (Hoffmann-La Roche Inc., priority 2008, dated 2014).)
